{"source": "patent US20100210559A1", "about": "“TRAP-14 AS A THERAPEUTIC AGENT” (priority 2007, published 2010)", "system": "drug-resistant Mycobacterium tuberculosis", "conditions": "drug-resistant Mycobacterium tuberculosis (PAS, streptomycin, INH); peptide 10 micrograms per ml; seven days", "note": "No end group written: not given here.", "data": [{"substance": "SFLLRNPNDKYEPF-OH [TRAP-14]", "values": [{"measurement": "% inhibition", "result": 0.0, "unit": "%"}]}]}
